Results reported in ChEMBL document CHEMBL5236657, “Synthesis and pharmacological validation of a novel radioligand for the orphan GPR88 receptor” (Bioorg Med Chem Lett, 2023).

How the values were obtained:
[1] = target: T1, G protein-coupled receptor 88 (Homo sapiens, UniProt Q9GZN0)
Description: Displacement of [3H]RTI-33 from GPR88 (unknown origin) by competition binding assay

[2] = target: T1, G protein-coupled receptor 88; remark: listed apart in the source
Description: Agonist activity at GPR88 (unknown origin) transfected in HEK293 cells assessed as cAMP level by GloSensor cAMP assay

T1 sequence (Q9GZN0 whole entry): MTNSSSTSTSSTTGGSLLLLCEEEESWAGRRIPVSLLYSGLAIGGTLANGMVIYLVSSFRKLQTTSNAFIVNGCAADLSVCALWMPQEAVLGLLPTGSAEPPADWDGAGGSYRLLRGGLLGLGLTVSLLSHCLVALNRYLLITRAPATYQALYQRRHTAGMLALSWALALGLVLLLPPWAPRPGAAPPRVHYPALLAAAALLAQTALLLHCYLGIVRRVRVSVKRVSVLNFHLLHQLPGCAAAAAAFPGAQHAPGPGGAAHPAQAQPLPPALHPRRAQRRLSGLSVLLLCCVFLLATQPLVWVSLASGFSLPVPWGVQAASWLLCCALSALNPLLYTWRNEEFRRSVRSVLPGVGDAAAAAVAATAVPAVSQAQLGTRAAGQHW

Ki [1]: 219 nM
EC50 [2]: 304 nM
Compound: CCCC(C)COc1ccc([C@H](CN)NC(=O)[C@@H](C)c2ccccc2)cc1 (some centres not stated)
